We go through one compound from patent publication US20070224297A1, “Method for increasing content of physiologically active substance in ginseng” (priority 2006, published 2007).

SMILES strings stand for the structures.

The assay can be described thus: DPPH antioxidant (radical scavenging) test. The conditions noted are these: 1 mM; absorbance relative to control, 517 nm, 30 minutes. The protocol:
In order to measure the antioxidant effect of the ginseng extract prepared by the method of the present invention, a DPPH (1,1-diphenyl-2-picrylhydrazyl) method was used. DPPH is a color-developed radical, and can be used to directly confirm the radical removing ability of the same. […] An absorbance was measured at 517 nm to determine the amount of the remaining DPPH. The blank of this test is distilled water or a solvent, and a control is an experimental group composed only of DPPH and distilled water without the sample. The antioxidant ability (Radical Scavenging activity: RSA) was determined by the following equation 1, compared with the absorbances of the controls, and the lowered ratios are shown in Table 2. RSA (%)=[Absorbance of Hydroxylate/Absorbance of Control]×100 [Equation 1]

With `O=C1O[C@H]([C@@H](O)CO)C(O)=C1O` [Vitamin C], the “RSA (%)” value came out at 35%.
